Measurements as given in patent US9700563B2, “Kappa opioid receptor compounds” (MediSynergies, LLC, priority 2012, dated 2017).

What was measured:
[1] = cited from earlier work
Human KOR = Human KOR (Homo sapiens (Human), UniProt P41145); test: Opioid receptor affinity, Kappa (KOR), NIMH PDSP; assay type: binding; settings: human KOR expressed in CHO cells
Description: (§1) The compounds were tested for activity vs. opioid receptor subtypes Kappa (KOR), Delta (DOR) and Mu (MOR) at an initial concentration of 10 μM each, through the NIMH Psychoactive Drug Screening Program (PDSP), operated by Dr. Bryan Roth and his colleagues in the Department of Pharmacology at the University of North Carolina (Chapel Hill, N.C.) through an agreement with the National Institute of Mental Health (NIMH). Human KOR, DOR and MOR were expressed in CHO cells for each assay.

Human DOR = Human DOR (Homo sapiens (Human), UniProt P41143); test: Opioid receptor affinity, Delta (DOR), NIMH PDSP; assay type: binding; settings: read-out: DOR % inh. at 10 uM
Description: as §1

Human MOR = Human MOR (Homo sapiens (Human), UniProt P35372); test: Opioid receptor affinity, Mu (MOR), NIMH PDSP; assay type: binding; settings: read-out: MOR % inh. at 10 uM
Description: as §1

Sequence of Human MOR (P35372 whole entry): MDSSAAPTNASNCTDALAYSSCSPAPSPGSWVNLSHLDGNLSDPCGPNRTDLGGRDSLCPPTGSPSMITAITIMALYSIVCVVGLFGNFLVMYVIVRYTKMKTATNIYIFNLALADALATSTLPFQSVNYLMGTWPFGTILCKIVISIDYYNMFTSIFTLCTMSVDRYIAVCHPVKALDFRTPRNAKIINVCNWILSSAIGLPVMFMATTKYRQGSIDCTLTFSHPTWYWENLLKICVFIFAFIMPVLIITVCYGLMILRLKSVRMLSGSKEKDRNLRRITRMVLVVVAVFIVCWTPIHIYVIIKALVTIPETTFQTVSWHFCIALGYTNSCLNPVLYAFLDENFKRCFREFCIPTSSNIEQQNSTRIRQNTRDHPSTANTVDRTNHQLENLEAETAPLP
Sequence of Human DOR (P41143 whole entry): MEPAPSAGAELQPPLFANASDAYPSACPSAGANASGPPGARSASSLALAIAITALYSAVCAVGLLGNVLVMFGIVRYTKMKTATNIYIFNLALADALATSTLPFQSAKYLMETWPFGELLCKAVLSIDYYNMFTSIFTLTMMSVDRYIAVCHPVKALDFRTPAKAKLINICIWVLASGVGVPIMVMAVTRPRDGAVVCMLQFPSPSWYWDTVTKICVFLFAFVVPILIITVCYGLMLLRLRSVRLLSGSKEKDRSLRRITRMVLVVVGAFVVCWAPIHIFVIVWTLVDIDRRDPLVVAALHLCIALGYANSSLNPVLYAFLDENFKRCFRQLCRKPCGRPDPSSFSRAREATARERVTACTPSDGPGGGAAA
Sequence of Human KOR (P41145 whole entry): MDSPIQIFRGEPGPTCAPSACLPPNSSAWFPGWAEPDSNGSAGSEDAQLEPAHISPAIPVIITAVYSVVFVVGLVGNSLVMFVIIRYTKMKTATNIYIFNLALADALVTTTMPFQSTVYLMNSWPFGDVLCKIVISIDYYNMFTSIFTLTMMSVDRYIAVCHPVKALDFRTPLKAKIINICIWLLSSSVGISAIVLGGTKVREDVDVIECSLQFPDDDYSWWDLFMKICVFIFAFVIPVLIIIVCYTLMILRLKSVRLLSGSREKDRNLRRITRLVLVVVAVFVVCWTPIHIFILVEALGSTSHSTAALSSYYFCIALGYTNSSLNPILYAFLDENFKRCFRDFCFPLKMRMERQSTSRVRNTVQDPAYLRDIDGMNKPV

| Ki (Human KOR) [nM] | inhibition at 10 µM (Human DOR) [%] | inhibition at 10 µM (Human MOR) [%] | SMILES | dysphoric behavior or hallucinations ([1]; Phase II trials in the U.S.) | incidence of nausea and vomiting ([1]; post-operative patients) |
| --- | --- | --- | --- | --- | --- |
|  |  |  | CC(C)C[C@@H](NC(=O)[C@@H](Cc1ccccc1)NC(=O)[C@H](N)Cc1ccccc1)C(=O)N[C@H](CCCCN)C(=O)N1CCC(N)(C(=O)O)CC1 [CR845] | has not displayed dysphoric behavior or hallucinations | reduced incidence of nausea and vomiting |
| 249 | 6 | 8 | CN(C)CCCC1(c2ccc(F)cc2)OCc2cc(C(=N)N3CCCC3)ccc21 (stereo not shown) [Example 6, 1-[1-[3-(dimethylamino)propyl]-1-(4-fluorophenyl)-1,3-dihydro-2-benzofuran-5-yl]-1-(pyrrolidin-1-yl)-methanimine] |  |  |
| 30 | 10 | 39 | CN(C)CCCC1(c2ccc(F)cc2)OCc2cc(C(=N)NCc3ccccc3)ccc21 (stereo not shown) [Example 4, N-benzyl-1-[3-(dimethylamino)propyl]-1-(4-fluorophenyl)-1,3-dihydro-2-benzofuran-5-carboximidamide] |  |  |
|  | 24 | 39 | CN(C)CCCC1(c2ccc(F)cc2)OCc2cc(-c3ncc[nH]3)ccc21 (stereo not shown) [Example 7] |  |  |
